Measured values as given in paper PMC6611227 (Frontiers in Microbiology, 2019).
Read-outs that look alike come from different tables or passages of the source.

Key:
[1] = target: T1, PiDHODH (dihydroorotate dehydrogenase) (Phytophthora infestans, UniProt D0MUE3); assay: biochemical; details: read-out: Activity % PiDHODH
T1 construct: gene PITG_01913

[2] = test system: O=C1C[C@@H](C(=O)O)NC(=O)N1; assay: purified protein
[3] = target: T1, PiDHODH (dihydroorotate dehydrogenase); assay: biochemical
[4] = substrate: O=C1C[C@@H](C(=O)O)NC(=O)N1; assay: purified protein; details: FMN orotate/dihydroorotate site in the α/β-barrel domain

T1 sequence (D0MUE3 55-424 limits assumed): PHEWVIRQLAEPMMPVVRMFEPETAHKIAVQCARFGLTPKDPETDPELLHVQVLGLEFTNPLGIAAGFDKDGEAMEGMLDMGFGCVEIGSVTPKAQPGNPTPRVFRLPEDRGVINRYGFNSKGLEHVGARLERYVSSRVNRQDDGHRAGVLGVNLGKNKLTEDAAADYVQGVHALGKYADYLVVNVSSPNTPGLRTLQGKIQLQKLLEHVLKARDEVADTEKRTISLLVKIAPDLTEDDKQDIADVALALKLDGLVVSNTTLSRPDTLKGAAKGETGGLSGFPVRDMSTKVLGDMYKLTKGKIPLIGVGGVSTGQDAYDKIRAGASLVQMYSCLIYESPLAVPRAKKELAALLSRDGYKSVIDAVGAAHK

Molecule	activity at 500 µM [1]	also measured
O=C1C(O)=C(CC=C(Cl)Cl)C(=O)c2ccccc21 [dichloroallyl lawsone]	30 ± 2%	
PiDHODH (dihydroorotate dehydrogenase) (Phytophthora infestans T30-4)		Km [2]: 57 ± 3 µM
Cc1cc(Nc2cc(F)c(C(F)(F)F)c(F)c2)n2ncnc2n1 [DSM190, N-(3,5-difluoro-4-(trifluoromethyl)phenyl)-5-methyl-[1,2,4]triazolo[1,5-a]pyrimidin-7-amine]	36 ± 10%	
C/C(O)=C(\C#N)C(=O)Nc1ccc(C(F)(F)F)cc1 [A77 1726]		IC50 [3]: 79 ± 8 µM
CC(O)=C(C#N)C(=O)Nc1ccc(-c2ccccc2)cc1Cl [compound 28, N-(3-chlorobiphenyl-4-yl)-2-cyano-3-hydroxybut-2-enamide]	1 ± 0.7%	
COc1cc(-c2ccc(Nc3ccccc3C(=O)O)c(OC)c2)ccc1Nc1ccccc1C(=O)O [Redoxal]	31 ± 8%	
COc1c(-c2ccccc2)ccc(NC(=O)C(C#N)=C(C)O)c1Cl [compound 19, N-(3-chloro-2-methoxybiphenyl-4-yl)-2-cyano-3-hydroxybut-2-enamide]	2 ± 0.5%	
O=C(O)C1=C(C(=O)Nc2ccc(-c3ccccc3)cc2)CCC1 [compound 1, 2-(4-biphenylylcarbamoyl)-1-cyclopentene-1-carboxylic acid]	23 ± 4%	
StDHODH (dihydroorotate dehydrogenase) (Solanum tuberosum; I273V/I299V/P120T/P359Q) (protein) ASTVDEATFCGWLFSATKLVNPFFAFLDPEVAHRLAVSAAARGWVPREKRTDLPILGLDVWGRRFSNPVGLAAGFDKNAEAVEGLLGLGFGFVEVGSVTPIPQEGNPKPRIFRLPNEGALINRCGFNSEGIVAVAKRLGAQHGKRKLETSSTSSPAGDEVKHGGKAGPGILGVNLGKNKTSEDAAADYVQGVHTLSQYADYLVVNISSPNTPGLRQLQGRKQLKDLVKKVQAARDEMQWGEEGPPPLLVKIAPDLSKQDLEDIAAVALALRVDGLIISNTTIQRPDSVSQNPVAQETGGLSGKPLFNMSTNILKEMYLLTKGRIPLIGCGGISSGEDAYKKIRAGATLVQLYTAFGYGGPALIPNIKAELAHCLEKDGYKSVHEAVGADCR		Km [4]: 20 ± 1 µM
